Measurements from patent publication US20020182749A1, “Sample evaporative control” (ACLARA BioSciences, Inc., priority 1999, published 2002).
Read-outs that look alike come from different tables or passages of the source.

Experiments:
alkaline phosphatase [1] = assay: competitive inhibition assay, alkaline phosphatase with AutoPhos substrate; type: biochemical
Description: The next study evaluated the system using a competitive inhibition assay, 4-Nitrophenyl phosphate (PNPP) (Sigma Chemical Co., St. Louis, Mo.) was used as a non-fluorescent substrate for alkaline phosphatase (20 femtomoles) competing with the AutoPhos substrate. The channel was rinsed with AutoPhos buffer and filled with […] AutoPhos substrate. Into the sample port was introduced 100 nl of PNPP at concentrations varying from 0 to 10 mM and the fluorescent signal was determined at different reaction time points.
The channel was rinsed with AutoPhos buffer and then filled with about 10 μl of 1 mM AutoPhos substrate. 50 nl of alkaline phosphatase was then dispensed into the sample port. The amount of enzyme dispensed into the sample port increased from 31.25 attomole to 62.5 femtomoles by a factor of 2. Enzyme solutions of different concentrations were prepared in individual wells of a 96-well microtitre plate. Fluorescence was excited at 480 nm±20 nm and emission collected at 520±20 nm. The signals were recorded at different time points, 0, 5, 10, 15, up to 35 minutes.
The next assay was a competitive inhibition assay using the following protocol: 4-Nitrophenyl phosphate (PNPP) was used as a non-fluorescent substrate for competing for alkaline phosphatase with AutoPhos substrate. After rinsing the channels with AutoPhos buffer, the channel was filled with 1 mM AutoPhos substrate. 100 nl of PNPP was dispensed at different concentrations ranging form 0 to 60 mM. The fluorescent signal was measured at different reaction time points. The fluorescent signal as a function of different inhibitor concentrations is tabulated as following.

alkaline phosphatase [2] = assay: alkaline phosphatase inhibition study on capillary electrophoresis card, FDP substrate; type: biochemical; details: 1.3 mU/ml alkaline phosphatase, 3.33 μM FDP, increasing PNPP
Description: The experimental procedure was as follows: the assay well is covered by tape. 5 μl of buffer was added to the reservoirs. 500 nl of the fluorescein or assay mixture was pipetted into the assay well. For the alkaline phosphatase assay, enzyme and substrate with or without inhibitor was mixed in a tube and then 500 nl of the assay mixture was pipetted into the assay well. The detection was performed at 7 mm distance from the injector. The particular conditions for each determination are set forth with the figure.
FIG. 17 illustrates the alkaline phosphatase activity for the different incubation times. As shown in the electropherograms, two product peaks (the first peak is fluorescein mono phosphate and the 2nd peak is fluorescein) are well separated from each other. Additionally, the use of longer incubation time results in more conversion of FDP (fluorescein di-phosphate as a substrate) to the FMP (fluorescein mono-phosphate) and finally to fluorescein. FIG. 18 depicts a linear calibration curve for the alkaline phosphatase using the card. For the inhibition study, PNPP which is a non-fluorescent substrate for the alkaline phosphatase and competes with FDP which is a fluorescent substrate for the enzyme, is added to the assay mixture at a number of different concentrations.

rhodamine-streptavidin = rhodamine-streptavidin (Streptomyces avidinii, UniProt P22629); assay: FRET binding inhibition, fluorescein-biotin / rhodamine-streptavidin, read at 600 nm; details: fluorescein-biotin 50 μM, rhodamine-streptavidin 25 μM, varying biotin
rhodamine-streptavidin, sequence (P22629 25-183): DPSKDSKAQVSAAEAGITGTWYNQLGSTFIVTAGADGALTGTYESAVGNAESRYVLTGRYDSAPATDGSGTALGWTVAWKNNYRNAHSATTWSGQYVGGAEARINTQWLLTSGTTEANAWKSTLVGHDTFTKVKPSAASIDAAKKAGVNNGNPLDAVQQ
Description: In another series of studies binding assays were performed using fluorescence resonance energy transfer. The procedure employed is as follows. The channel was rinsed and filled with 25 μl of rhodamine labeled streptavidin and 100 nl of fluorescein labeled biotin dispensed in the sample port. The concentration of the antigen varied from 0 to 100 μM by 2-fold dilutions. The signal detection system was as described, except that emission was detected at 600±20 nm. The energy transfer increased corresponding to the increase in antigen. The study was repeated varying the amount of labeled streptavidin while keeping the biotin-fluorescein at 25 μM. The background FRET signal contributed by rhodamine-streptavidin alone was substantially negligible, when the concentration of rhodamine-streptavidin was greater than about 2 μM. The following tables provide the results for the two studies.
In the next study, the effect of inhibitor on the observed signal was investigated. Fluorescein-biotin was maintained at 50 μM and rhodamine-streptavidin at 25 μM. the signal was read at 600±20 nm at varying concentrations of biotin as a binding inhibitor, with 100 nl of the binding inhibitor being added to the sample port.

[3] = biological target: T1, rhodamine-labeled streptavidin (Streptomyces avidinii, UniProt P22629); assay: inhibition of antigen-receptor binding, fluorescein-biotin / rhodamine-labeled streptavidin, read at 520 nm
T1 construct: purchased Molecular Probe
T1 sequence (P22629 25-183): as above
Description: In the next study, the channel was filled with varying concentrations of biotin in the range of 0 to 5 μM and 100 nl of rhodamine-labeled streptavidin (625 nM) followed by 100 nl of 1.0 μM fluorescein-biotin added to the sample port. After incubating for 60 min., the signal was detected at 520±20 nm. The results are reported as fraction inhibition. The following tables provide the results.
Using the above reagents and protocol, an inhibition assay was performed. The protocol was to fill the channel with 0, 30, 60, 180, 240, 500, 600, 1000, 5000 […] of biotin, respectively, followed by dispensing 100 nl of rhodamine labeled receptor into the sample port. After dispensing 100 nl of 1.0 μM fluorescein labeled antigen into the sample port, the reaction mixture was incubated for 60 minutes. The fluorescence was recorded by exciting at 480±20 nm and reading the emission at 520 nm±20 nm As the inhibitor concentration increased, the fluorescence intensity increased, indicating an increased inhibition. The increase in the fluorescent signal as a function of inhibitor concentration was converted to the percentage of inhibition.

CYP1A2 = CYP1A2 (Homo sapiens, UniProt P05177); assay: in vitro
CYP1A2, sequence (P05177 whole entry): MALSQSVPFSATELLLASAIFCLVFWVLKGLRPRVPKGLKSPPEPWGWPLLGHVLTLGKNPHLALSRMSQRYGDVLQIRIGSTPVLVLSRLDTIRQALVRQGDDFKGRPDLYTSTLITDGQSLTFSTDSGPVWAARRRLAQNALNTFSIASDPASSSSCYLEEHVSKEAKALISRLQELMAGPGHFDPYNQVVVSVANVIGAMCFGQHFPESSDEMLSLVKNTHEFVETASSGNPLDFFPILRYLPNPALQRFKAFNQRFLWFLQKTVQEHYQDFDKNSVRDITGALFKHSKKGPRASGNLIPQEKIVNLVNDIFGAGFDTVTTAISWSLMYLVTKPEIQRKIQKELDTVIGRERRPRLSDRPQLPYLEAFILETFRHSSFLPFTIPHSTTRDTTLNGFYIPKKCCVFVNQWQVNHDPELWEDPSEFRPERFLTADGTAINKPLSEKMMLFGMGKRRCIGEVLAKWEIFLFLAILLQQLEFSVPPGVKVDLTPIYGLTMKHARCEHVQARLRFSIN
Description: B: Inhibition in CYP450 1A2 Assay:
Make 500 M CEC substrate for 1A2.
For each of the dilutions of furafylline make Buffer Mix:
Add 5 μl of the buffer mix to both of the side wells of the channels. Because the solution contains Pluronic F68, the solution in the middle assay well rises to the top. Dilute CYP1A2 enzyme 2:1 with water.
Add 300 nl of diluted enzyme to assay (middle) well.
Incubate at 37° C. for 35 minutes.
Take RFU readings using Molecular Devices F-max plate reader. F-max settings: Filter pair 390/460; Int.20 ms; speed 10.

alkaline phosphatase [4] = assay: alkaline phosphatase inhibition in device ports, fluorescein diphosphate substrate; type: biochemical; details: 30 nl 0.1 nM enzyme
Excerpt: The upper plate is about 1 mm in height and the lower plate is also about 1 mm in height. The port for introducing solutions is 1 mm in diameter and about 900 to 950 μm in height, while the channel substantially extends the remaining length of the upper sheet. The channel was varied from about 0.2 mm to 3.0 mm in width, where the interface between the port or well and the channel varied, with either the port or the channel determining the area of interface. The reservoirs have a diameter of about 2 mm. The channels were treated with 2N sodium hydroxide for 5 mins. using a vacuum pump to ensure that the basic solution extends through the channels and reservoirs. The ports or wells appear to be unaffected by this treatment, so that the channels and reservoirs have a hydrophilic surface, while the ports have a hydrophobic surface. One or more of the ports are used in each of the studies. Common to each of the experiments is to fill the device with 10 μl of 25 μM fluorescein diphosphate in 50 mM Tris buffer (pH 10.0) added to each of the inlet reservoirs, after prewetting the device.
In the next study, the effect of enzyme inhibitor was investigated. The channel was 1 mm in width. […] The fluorescence development is monitored with a CCD camera. Fluorescence is substantially confined to the ports and the fluorescent signal is related to the concentration of inhibitor introduced into the port.

[5] = read-out: Fraction of Inhibition

O=[N+]([O-])c1ccc(OP(=O)(O)O)cc1 [PNPP, 4-Nitrophenyl phosphate]
Fluorescent Signal (alkaline phosphatase [1]; Inhibitor conc. 0.001 mM): 4.5 ×103 | Fluorescent Signal (alkaline phosphatase [1]; Inhibitor conc. 0.0025 mM): 4.0 ×103 | Fluorescent Signal (alkaline phosphatase [1]; Inhibitor conc. 0.005 mM): 4.0 ×103 | Fluorescent Signal (alkaline phosphatase [1]; Inhibitor conc. 0.01 mM): 3.5 ×103 | Fluorescent Signal (alkaline phosphatase [1]; Inhibitor conc. 0.02 mM): 2.6 ×103 | Fluorescent Signal (alkaline phosphatase [1]; Inhibitor conc. 0.3125 mM): 2.0 ×103 | Fluorescent Signal (alkaline phosphatase [1]; Inhibitor conc. 0.625 mM): 1.6 ×103 | Fluorescent Signal (alkaline phosphatase [1]; Inhibitor conc. 1.25 mM): 1.6 ×103 | Fluorescent Signal (alkaline phosphatase [1]; Inhibitor conc. 5 mM): 1.6 ×103 | Fluorescent Signal (alkaline phosphatase [1]; Inhibitor conc. 10 mM): 1.5 ×103 | Fluorescence Signal (alkaline phosphatase [1]; [Inhibitor] 0.001 mM): 4527 RFU | Fluorescence Signal (alkaline phosphatase [1]; [Inhibitor] 0.0025 mM): 4000 RFU | Fluorescence Signal (alkaline phosphatase [1]; [Inhibitor] 0.005 mM): 4000 RFU | Fluorescence Signal (alkaline phosphatase [1]; [Inhibitor] 0.01 mM): 3500 RFU | Fluorescence Signal (alkaline phosphatase [1]; [Inhibitor] 0.02 mM): 2600 RFU | Fluorescence Signal (alkaline phosphatase [1]; [Inhibitor] 0.3125 mM): 2000 RFU | Fluorescence Signal (alkaline phosphatase [1]; [Inhibitor] 0.625 mM): 1600 RFU | Fluorescence Signal (alkaline phosphatase [1]; [Inhibitor] 1.25 mM): 1600 RFU | Fluorescence Signal (alkaline phosphatase [1]; [Inhibitor] 5 mM): 1600 RFU | Fluorescence Signal (alkaline phosphatase [1]; [Inhibitor] 10 mM): 1500 RFU | Fluorescence Signal (alkaline phosphatase [1]; [Inhibitor] 60 mM): 750 RFU | effect on FDP alkaline phosphatase activity (alkaline phosphatase [2]): reduction of FDP alkaline phosphates activity

O=C(O)CCCC[C@@H]1SC[C@@H]2NC(=O)N[C@@H]21 [biotin, D(+)-Biotin]
energy transfer (FRET signal at 600 nm) (rhodamine-streptavidin): decreased with increase of binding inhibitor | inhibition at 0.03 µM ([3]; read-out: % of Inhibition): 3.85% | inhibition at 0.06 µM ([3]; read-out: % of Inhibition): 3.1% | inhibition at 0.18 µM ([3]; read-out: % of Inhibition): 5% | inhibition at 0.24 µM ([3]; read-out: % of Inhibition): 5.14% | inhibition at 0.5 µM ([3]; read-out: % of Inhibition): 22.4% | inhibition at 0.6 µM ([3]; read-out: % of Inhibition): 36.6% | inhibition at 1 µM ([3]; read-out: % of Inhibition): 95% | inhibition at 5 µM ([3]; read-out: % of Inhibition): 100% | inhibition at 0.03 µM [3, 5]: 3.85% | inhibition at 0.06 µM [3, 5]: 3.1% | inhibition at 0.18 µM [3, 5]: 5% | inhibition at 0.24 µM [3, 5]: 5.14% | inhibition at 0.5 µM [3, 5]: 22.4% | inhibition at 0.6 µM [3, 5]: 36.6% | inhibition at 1 µM [3, 5]: 95% | inhibition at 5 µM [3, 5]: 100%

Cc1nc2c([nH]1)c(=O)n(C)c(=O)n2Cc1ccco1 [furafylline]
inhibition at 35 min, 0.133 µM (CYP1A2): 2% | inhibition at 35 min, 0.665 µM (CYP1A2): 31% | inhibition at 35 min, 1.33 µM (CYP1A2): 64% | inhibition at 35 min, 6.65 µM (CYP1A2): 72% | inhibition at 35 min, 13.3 µM (CYP1A2): 75% | inhibition at 35 min, 66.5 µM (CYP1A2): 77% | inhibition at 35 min, 133 µM (CYP1A2): 78%

Cc1ncc(COP(=O)(O)O)c(C=O)c1O [pyridoxal phosphate]
fluorescence development in port (alkaline phosphatase [4]; 30 nl of 25 μM inhibitor): only moderately inhibited | fluorescence development in port (alkaline phosphatase [4]; 30 nl of 250 μM inhibitor, at 30 mins): still very faint
